Earlier results on one compound are cited in patent US20210338702A1, “A teniposide injection with high dilution stability and preparation method thereof” (JIANGSU LINGHANG BIOLOGICAL TECHNOLOGY CO., LTD., priority 2018, published 2021).

For series [1] the following is noted: compared with the same type of drug etoposide.

Each structure is given as a SMILES string.

In the case of `COc1cc([C@@H]2c3cc4c(cc3[C@@H](O[C@@H]3O[C@@H]5CO[C@@H](c6cccs6)O[C@H]5[C@H](O)[C@H]3O)[C@H]3COC(=O)[C@H]23)OCO4)cc(OC)c1O` [Teniposide], the Solubility in water result was “almost insoluble in water”. Moreover, the “Biological activity relative to etoposide” value in series [1] was 5-10 times.
